Residues, ends and D or L forms follow the SMILES beside them. No end group written: not given here.
What follows are molecules tested on human umbilical vein endothelial cells (HUVEC). Settings: 48 h.

Row | Molecule | IC50
1 | CC[C@H](C)[C@H](NC(=O)[C@H](CCCCN)NC(=O)[C@@H](N)[C@@H](C)O)C(=O)N[C@@H](CS)C(=O)N[C@H](C(=O)NCC(=O)N[C@@H](CS)C(=O)N1CCC[C@H]1C(=O)N[C@@H](CCCNC(=N)N)C(=O)N[C@@H](CC(=O)O)C(=O)N[C@H](C(=O)N1CCC[C@H]1C(=O)N[C@H](C(=O)N[C@@H](CC(N)=O)C(=O)N[C@@H](CO)C(=O)N1CCC[C@H]1C(=O)O)[C@@H](C)O)[C@@H](C)CC)C(C)C [SEQ ID NO:11, Thr-Lys-Ile-Cys-Val-Gly-Cys-Pro-Arg-Asp-Ile-Pro-Thr-Asn-Ser-Pro] (H-TKICVGCPRDIPTNSP-OH) | 30 µM
2 | H-ETKKLGQSLDANAEVY-OH [SEQ ID NO:15, Glu-Thr-Lys-Lys-Leu-Gly-Gln-Ser-Leu-Asp-Ala-Asn-Ala-Glu-Val-Tyr] | 42 µM
3 | H-LDANAEVYVVPWEKKI-OH [SEQ ID NO:16, Leu-Asp-Ala-Asn-Ala-Glu-Val-Tyr-Val-Val-Pro-Trp-Glu-Lys-Lys-Ile] | 44 µM
4 | H-NNATFYFKIDNVKKAR-OH [SEQ ID NO:10, Asn-Asn-Ala-Thr-Phe-Tyr-Phe-Lys-Ile-Asp-Asn-Val-Lys-Lys-Ala-Arg] | < 0.8 µM
5 | H-TITKLNAENNATFYFK-OH [SEQ ID NO:9, Thr-Ile-Thr-Lys-Leu-Asn-Ala-Glu-Asn-Asn-Ala-Thr-Phe-Tyr-Phe-Lys] | < 0.8 µM
6 | YFIDFVARETTASKES-OH [SEQ ID NO:20, Tyr-Phe-Ile-Asp-Phe-Val-Ala-Arg-Glu-Thr-Thr-Ala-Ser-Lys-Glu-Ser] | 28 µM

Same assay, conditions: HUVEC, bFGF-induced proliferation

Row | Molecule | Inhibition of endothelial cell proliferation (result in words)
7 | YFIDFVARETTASKES-OH [SEQ ID NO:20, Tyr-Phe-Ile-Asp-Phe-Val-Ala-Arg-Glu-Thr-Thr-Ala-Ser-Lys-Glu-Ser] | inhibits endothelial cell proliferation

Reference: patent US6869931B1, “Inhibition of angiogenesis by high molecular weight kininogen domain 3 peptide analogs” (Temple University - Of The Commonwealth System of Higher …, priority 1998, dated 2005)
